Assay results published in PMC6271935, “Synthesis and Broad-Spectrum Antiviral Activity of Some Novel Benzo-Heterocyclic Amine Compounds” (Molecules, 2014).
Several values for one entry are separate records, joined by “and”; a condition that tells them apart may be missing. Identical values can stand only once.

How the values were obtained:
[1] = system: Influenza A/hanfang/359/95; experiment: microbe, parasite or virus in culture; type: cell-based; conditions: Influenza A virus, MDCK
[2] = system: MDCK cells; experiment: Cytotoxicity in MDCK cells (CPE); type: cell-based, Canine; conditions: 48 h, Reed & Muench
Method: (§1) The cytotoxicity of the compounds in MDCK, Vero and HepG2.2.15 cells was monitored via cytopathic effect (CPE) assays. The MDCK and Vero cells (2.5 × 10^4 /well) were plated in a 96-well plate. Following a 24 h hold period, the monolayer of cells was incubated in the presence of various concentrations of the test compounds. […] The TC50 value was calculated using Reed & Muench analysis.

[3] = system: Cox B3; experiment: organism not typed; type: cell-based, Coxsackie viruses (Cox B3 Nancy strain); conditions: Vero
[4] = system: HCV; experiment: Anti-HCV assay in Huh7.5 cells, intracellular HCV RNA by real time RT-PCR; type: cell-based; conditions: Hepatitis C virus, 96 h
[5] = system: Huh7.5 cells; experiment: Cytotoxicity in Huh7.5 cells (MTT); type: cell-based, human; conditions: 96 h
Method: The Huh7.5 cells (1 × 10^4 cells/well) were plated in 96-well plates. Six hours later the culture media was replaced with fresh medium containing the test compounds at various concentrations. Cytotoxicity was evaluated with the 3-(4,5-dimethylthiazol-2-yl)-2,5-diphenyltetrazolium bromide (MTT) assay after 96 h.
Huh7.5 cells were seeded at a density of 3 × 10^4 cells/cm^2. After 24 h of incubation, the cells were infected with an HCV viral stock (approximately 45 IU per cell) and simultaneously treated with Telaprevir, the test compounds, or the solvent control. The culture medium was removed 96 h after inoculation, and the total intracellular RNA and total intracellular proteins were extracted with a Qiagen Kit according to the manufacturer’s instructions. Intracellular HCV RNA was quantified using a one-step real time RT-PCR kit (Invitrogen). Cytotoxicity was tested by the MTT assay, and IC50 values were calculated by the Reed and Muench methods.

[6] = system: HBV; experiment: Anti-HBV assay in HepG2.2.15 cells, viral DNA by real time PCR; type: cell-based, Hepatitis B virus; conditions: for IC50: Hepatitis B virus, HepG2.2.15, 144 h, intracellular viral DNA, 3 + 3 days
Method: The synthesized target compounds were assayed for their broad spectrum antiviral activity towards influenza A, HBV, HCV and Cox B3 virus in vitro. […] The inhibitory activities towards HBV and HCV were tested by real time PCR, and lamivudine (3TC) and teleprevir were used as positive controls, respectively.
The anti-HBV activities of test compounds and a positive control drug were tested in HepG2.2.15 cells. The HepG2.2.15 cells were cultured in 96-well plates and treated with the test compounds at 37 °C for 3 days. The medium was removed, and fresh medium containing the test compounds was added for an additional 3 days. The cells were harvested and intracellular DNA was extracted. The inhibition of viral DNA replication in treated cells versus untreated cells was determined by real time PCR.

[7] = system: HepG2.2.15 cells; experiment: Cytotoxicity in HepG2.2.15 cells (CPE); type: cell-based, human; conditions: 3 + 3 days
Method: Cells were cultured for 3 days at 37 °C in a 5% CO2 atmosphere in an incubator, and the medium was replaced with fresh medium containing the test compounds for an additional 3 days. The cells were subsequently monitored by CPE and the TC50 value was calculated using Reed and Muench analysis.

[8] = system: influenza A, HCV, Cox B3 virus and HBV; experiment: Broad-spectrum antiviral panel (summary over all four antiviral assays); type: cell-based; conditions: range/approximate value over influenza A, read-out: IC50 over the entire virus panel
[9] = system: Vero cells; experiment: Cytotoxicity in Vero cells (CPE); conditions: 48 h, Reed & Muench
Method: as §1

With `Cc1ccc(CNc2ccc3ncsc3c2)o1` [3g, Benzothiazol-6-yl-(5-methylfuran-2-ylmethyl)-amine] the IC50 [1] was 26.2 µM, the “TC50 (50% cytotoxic concentration), Influenza A/hanfang/359/95” value [2] was 94.60 µM and the IC50 [3] was 5.03 µM. For the same compound, the IC50 [4] was 34.9 µM, the “TC50 (50% cytotoxic concentration), HCV” value [5] was 138.38 µM and the IC50 [6] was 0.7 µM. For the same compound, the “TC50 (50% cytotoxic concentration), HBV” value [7] was 21.48 µM, the IC50 [8] was 0.71 to 34.9 µM and the melting point was 52 to 54 °C. The “TC50 (50% cytotoxic concentration), Cox B3” value [9] was 65.57 µM.
In the case of `COc1ccccc1/C=C/CNc1ccc2ncsc2c1` [3f, (E)-benzothiazol-6-yl-[3-(2-methoxy-phenyl)-allyl]-amine], the IC50 [1] is reported as 4.15 µM, the “TC50 (50% cytotoxic concentration), Influenza A/hanfang/359/95” value [2] is reported as 21.66 µM and the IC50 [3] is reported as 3.21 µM. The IC50 [4] was 5.04 µM, the “TC50 (50% cytotoxic concentration), HCV” value [5] was 54.99 µM and the IC50 [6] was 5.06 µM. The “TC50 (50% cytotoxic concentration), HBV” value [7] was 28.87 µM, the IC50 [8] was 3.21 to 5.06 µM and ~5 µM and the melting point was 107 to 109 °C. For the same compound, the “TC50 (50% cytotoxic concentration), Cox B3” value [9] was 12.48 µM.
With `O=[N+]([O-])c1ccc(CNc2ccc3ncoc3c2)cc1` [2b, Benzooxazol-6-yl-(4-nitrobenzyl)-amine] the IC50 [1] was 41.3 µM, the “TC50 (50% cytotoxic concentration), Influenza A/hanfang/359/95” value [2] was 288.23 µM and the IC50 [3] was 31.3 µM. The IC50 [4] was over 66.7 µM, the “TC50 (50% cytotoxic concentration), HCV” value [5] was over 200 µM and the IC50 [6] was over 5.56 µM. For the same compound, the “TC50 (50% cytotoxic concentration), HBV” value [7] was 16.67 µM, the melting point was 154 to 156 °C and the “TC50 (50% cytotoxic concentration), Cox B3” value [9] was 257.52 µM.
For `C(=C\c1ccccc1)/CNc1ccc2ncoc2c1` [2c, (E)-Benzooxazol-6-yl-(3-phenylallyl)-amine], the IC50 [1] was 11.6 µM, the “TC50 (50% cytotoxic concentration), Influenza A/hanfang/359/95” value [2] was 133.16 µM and the IC50 [3] was 1.24 µM. The IC50 [4] was 10.5 µM, the “TC50 (50% cytotoxic concentration), HCV” value [5] was 105.44 µM and the IC50 [6] was over 16.7 µM. For the same compound, the “TC50 (50% cytotoxic concentration), HBV” value [7] was 28.87 µM, the melting point was 100 to 103 °C and the “TC50 (50% cytotoxic concentration), Cox B3” value [9] was 103.36 µM.
With `Cc1ccc(CNc2ccc3nc[nH]c3c2)o1` [4b, (3H-Benzoimidazol-5-yl)-(5-methyl-furan-2-ylmethyl)-amine] the IC50 [1] was 21.4 µM, the “TC50 (50% cytotoxic concentration), Influenza A/hanfang/359/95” value [2] was 440.02 µM and the IC50 [3] was 48.9 µM. For the same compound, the IC50 [4] was 24.4 µM, the “TC50 (50% cytotoxic concentration), HCV” value [5] was over 200 µM and the “anti-HBV activity (in words)” value [6] was “complete loss of antiviral activity”. For the same compound, the IC50 [6] was over 50 µM, the “TC50 (50% cytotoxic concentration), HBV” value [7] was over 50 µM and the melting point was 75 to 77 °C. For the same compound, the “TC50 (50% cytotoxic concentration), Cox B3” value [9] was 254.07 µM.
In the case of `Clc1ccc(CNc2ccc3ncsc3c2)s1` [3i, Benzothiazol-6-yl-(5-chlorothiophen-2-ylmethyl)-amine], the IC50 [1] is reported as 3.42 µM, the “TC50 (50% cytotoxic concentration), Influenza A/hanfang/359/95” value [2] is reported as 27.42 µM and the IC50 [3] is reported as 2.53 µM. The IC50 [4] was 9.81 µM, the “TC50 (50% cytotoxic concentration), HCV” value [5] was 38.24 µM and the IC50 [6] was over 5.56 µM. For the same compound, the “TC50 (50% cytotoxic concentration), HBV” value [7] was 9.62 µM, the melting point was 104 to 106 °C and the “TC50 (50% cytotoxic concentration), Cox B3” value [9] was 13.18 µM.
